Experimental data from article PMC11173194, “Optimizing Antimicrobial Peptide Design: Integration of Cell-Penetrating Peptides, Amyloidogenic Fragments, and Amino Acid Residue Modifications” (International Journal of Molecular Sciences, 2024).

Columns and labels:
S. aureus 129B strain = test: Antibacterial activity in liquid medium; format: cell-based, Staphylococcus aureus; details: for Peptide Efficacy in Liquid Medium after 24 h of Incubation: S. aureus 129B strain (clinical isolate), Mueller–Hinton Broth, two independent experiments
Procedure: (§1) We utilized various strains of microorganisms in this study. […] Bacillus cereus strain IP 5832 (susceptible), Pseudomonas aeruginosa strains ATCC 28753 (susceptible) and 2943 (resistant), and Escherichia coli strains K12 and MG1655 (both susceptible) were also utilized in our experiments.
(§2) S. aureus (strains 209P and 129B), MRSA (strains ATCC 43300 and SA 180-F), B. cereus (strain IP 5832), P. aeruginosa (strains ATCC 28753 and 2943), and E. coli (strains K12 and MG1655) were cultured on Mueller–Hinton Broth (MHB).
(§3) Statistical analysis was conducted using the SigmaPlot v15 software package (SPSS Inc., Chicago, IL, USA). Each experiment was repeated at least twice (n ≥ 2). Data are presented as mean ± standard deviation (M ± SD). Statistical significance was assessed using Student’s t-test and analysis of variance (ANOVA) in the tests of the antibacterial activity of the peptides. The confidence interval value of 0.95 was used, corresponding to an alpha value of 0.05. Statistically significant decreases in optical density compared to the negative control were considered for specific peptide concentrations with p-values below 0.05.

S. aureus 209P strain = test: Antibacterial activity in liquid medium; format: cell-based, Staphylococcus aureus; details: for Peptide Efficacy in Liquid Medium after 15 h of Incubation: S. aureus 209P strain, Mueller–Hinton Broth, two independent experiments; for concentration at which inhibition of bacterial growth was observed (Figure 1): S. aureus 209P, liquid medium, 15 h, gentamicin positive control
Procedure: as §1, §2, §3

MRSA ATCC 43300 strain = test: Antibacterial activity in liquid medium; format: cell-based, methicillin-resistant Staphylococcus aureus; details: for Peptide Efficacy in Liquid Medium after 15 h of Incubation: MRSA ATCC 43300 strain, Mueller–Hinton Broth, two independent experiments
Procedure: as §1, §2, §3

MRSA SA 180-F strain = test: Antibacterial activity in liquid medium; format: cell-based, methicillin-resistant Staphylococcus aureus; details: MRSA SA 180-F strain (clinical isolate), Mueller–Hinton Broth, two independent experiments
Procedure: as §1, §2, §3

[1] = system: P. aeruginosa 2943 strain; test: Antibacterial activity in liquid medium; format: cell-based, Pseudomonas aeruginosa; details: for antimicrobial effect compared to the negative control (Figure 3): P. aeruginosa 2943, liquid medium, 24 h; for Peptide Efficacy in Liquid Medium after 24 h of Incubation: P. aeruginosa 2943 strain (resistant), Mueller–Hinton Broth, two independent experiments
Procedure: as §1, §2, §3

P. aeruginosa ATCC 28753 = test: Antibacterial activity in liquid medium; format: cell-based, Pseudomonas aeruginosa; details: for Peptide Efficacy in Liquid Medium after 15 h of Incubation: Mueller–Hinton Broth, two independent experiments; for concentrations of peptides suppressing the growth of bacteria compared to the negative control (Figure 3): liquid medium, 15 h
Procedure: as §1, §2, §3

E. coli K12 strain = test: Antibacterial activity in liquid medium; format: cell-based, Escherichia coli; details: for concentration with antimicrobial activity / effective concentration (text to Figure 4): E. coli K12, liquid medium, 15 h; for Peptide Efficacy in Liquid Medium after 15 h of Incubation: E. coli K12 strain, Mueller–Hinton Broth, two independent experiments
Procedure: as §1, §2, §3

E. coli MG1655 strain = test: Antibacterial activity in liquid medium; format: cell-based, Escherichia coli; details: for concentration with antimicrobial activity / effective concentration (text to Figure 4): E. coli MG1655, liquid medium, 24 h; for Peptide Efficacy in Liquid Medium after 24 h of Incubation: E. coli MG1655 strain, Mueller–Hinton Broth, two independent experiments
Procedure: as §1, §2, §3

human skin fibroblasts = test: Toxicity of peptides against human fibroblasts (calcein AM / propidium iodide; cell cycle); format: cell-based; details: both with and without pre-incubation, 96 h; for number of dead cells: calcein AM / propidium iodide
Procedure: The peptides were pre-incubated for 12 h in DMEM medium without serum in a CO2 incubator. After the incubation period, serum was added to the medium to a final concentration of 10%, and the preparation was added dropwise onto the cells. The cytotoxic effects of peptides against eukaryotic cells (human fibroblasts and BT474) were subsequently assessed using the same method as in the previous study [62].

[2] = POPE:POPG bilayer; 0.1 M KCl, pH 7.4; subthreshold peptide concentrations (20 µg/mL)
From the text: The effects of peptide R44K^S on the ionic permeability of planar lipid bilayers composed of an equimolar mixture of POPE and POPG mimicking target bacterial cell membranes was examined. The example of the time dependence of the transmembrane current produced by a subsequent one-side addition of R44K^S into the bathing solution (0.1 M KCl, pH 7.4) is shown in Figure 7A.
The method of recording the transmembrane current under voltage-clamp conditions was used to study the effect of a synthetic peptide on a lipid membrane. Planar lipid bilayers were formed by the Montal and Mueller technique on an aperture of 50 µm diameter in a 10 µm thick Teflon film separating two compartments of Teflon chambers. Each compartment contained 0.1 M KCl and 10 mM HEPES at pH 7.4. Hexadecane was used for the aperture pretreatment. […]
Ag/AgCl electrodes with 1.5% agarose/2 M KCl bridges were used to apply the transmembrane voltage (V) and measure the current flowing through the bilayer (I). […] Data were digitized by a Digidata 1550A and analyzed using pClamp 10.7 (Molecular Devices, LLC, Orleans Drive, Sunnyvale, CA, USA) and Origin 7.0 (OriginLab Corporation, Northampton, MA, USA). […]

B. cereus IP 5832 strain = test: Antibacterial activity in liquid medium; format: cell-based, Bacillus cereus; details: Mueller–Hinton Broth, two independent experiments
Procedure: as §1, §2, §3

[3] = system: S. aureus (strain 209P), MRSA (strain ATCC 43300), B. cereus (strain IP 5832), P. aeruginosa (strain ATCC 28753), and E. coli (strain K12); test: Antimicrobial effect compared with gentamicin, panel of Figure 5; format: cell-based; details: Figure 5 panel; Mueller–Hinton Broth; 15 h; two independent experiments
Procedure: The antibiotic gentamicin sulfate was used as a positive control. The concentration of gentamicin was 100 µM. Cell cultures in a liquid medium (Mueller–Hinton Broth) served as a negative control. Error bars show standard errors. Number of independent experiments is two. #—for significant differences with negative control p < 0.05.
as §2, §3

BT474 cells = details: 100 µg/mL, both with and without pre-incubation, 96 h
Procedure: To analyze the cytotoxic effect, cells after incubation with peptides were stained with calcein AM (stains living cells) and propidium iodide (stains dead cells).
Analysis of the cytostatic effect was performed on the basis of the distribution of cells by phases of the cell cycle and mitotic activity.
The peptides were pre-incubated for 12 h in DMEM medium without serum in a CO2 incubator. After the incubation period, serum was added to the medium to a final concentration of 10%, and the preparation was added dropwise onto the cells. The cytotoxic effects of peptides against eukaryotic cells (human fibroblasts and BT474) were subsequently assessed using the same method as in the previous study.

## RKKRRQRRRGGGGVVVHINGGKFGGGGSRQIKIWFQNRRMKWKK [R44K^S, Unmodified peptide: TAT fragment, amyloidogenic fragment and Antp fragment; commercial product]
S. aureus 129B strain
  Peptide Efficacy in Liquid Medium after 24 h of Incubation: >194.4 µM, 129B strain
S. aureus 209P strain
  Peptide Efficacy in Liquid Medium after 15 h of Incubation: 6 µM
  concentration at which inhibition of bacterial growth was observed (Figure 1): 6 to 12 µM
MRSA ATCC 43300 strain; MRSA ATCC 43300, liquid medium, 15 h
  concentration at which inhibitory effect / complete suppression of growth was observed (text to Figure 2): 12 µM
MRSA ATCC 43300 strain
  Peptide Efficacy in Liquid Medium after 15 h of Incubation: 12 µM
MRSA SA 180-F strain
  Peptide Efficacy in Liquid Medium after 24 h of Incubation: >194.4 µM, SA 180-F strain
[1]
  antimicrobial effect compared to the negative control (Figure 3): did not exhibit antimicrobial effects
  Peptide Efficacy in Liquid Medium after 24 h of Incubation: >194.4 µM, 2943 strain
P. aeruginosa ATCC 28753
  Peptide Efficacy in Liquid Medium after 15 h of Incubation: 3 µM
  concentrations of peptides suppressing the growth of bacteria compared to the negative control (Figure 3): 1.5 µM
E. coli K12 strain
  concentration with antimicrobial activity / effective concentration (text to Figure 4): 6 µM
  Peptide Efficacy in Liquid Medium after 15 h of Incubation: 6 µM
E. coli MG1655 strain
  concentration with antimicrobial activity / effective concentration (text to Figure 4): 19.4 µM
  Peptide Efficacy in Liquid Medium after 24 h of Incubation: 194.4 µM
Human skin fibroblasts; 100 µg/mL
  cytotoxic effect: no cytotoxic effect
[2]
  single pore conductance: 10–30 pS

## RKKRRQRRRGG-Sar-GVVVHI-X-GGKF-NH2 [R23F^S*, Peptide with TAT fragment and modified amyloidogenic fragment of S. aureus S1 protein, C-terminal amide]
S. aureus 129B strain
  Peptide Efficacy in Liquid Medium after 24 h of Incubation: 379.8 µM
S. aureus 209P strain
  Peptide Efficacy in Liquid Medium after 15 h of Incubation: 6 µM
MRSA ATCC 43300 strain
  Peptide Efficacy in Liquid Medium after 15 h of Incubation: 12 µM
MRSA SA 180-F strain
  Peptide Efficacy in Liquid Medium after 24 h of Incubation: 379.8 µM
B. cereus IP 5832 strain
  Peptide Efficacy in Liquid Medium after 15 h of Incubation: 3 µM
[1]
  Peptide Efficacy in Liquid Medium after 24 h of Incubation: 38 µM
P. aeruginosa ATCC 28753
  Peptide Efficacy in Liquid Medium after 15 h of Incubation: 6 µM
E. coli K12 strain
  Peptide Efficacy in Liquid Medium after 15 h of Incubation: 3 µM
E. coli MG1655 strain
  Peptide Efficacy in Liquid Medium after 24 h of Incubation: 379.8 µM
[3]
  concentrations with antimicrobial effect comparable to gentamicin (100 μM) against all bacteria: 24 to 48 µM
Human skin fibroblasts; 50 µg/mL
  number of dead cells: 11 ± 3%
Human skin fibroblasts; 100 µg/mL
  number of dead cells: 12 ± 3%

## VVVHINGGKFGGGGSRQIKIWFQNRRMKWKK [V31K^S]
S. aureus 129B strain
  Peptide Efficacy in Liquid Medium after 24 h of Incubation: >276.8 µM, 129B strain
S. aureus 129B strain; S. aureus 129B, liquid medium, 24 h
  complete inhibition of bacterial growth (Figure 1): not demonstrated
S. aureus 209P strain
  Peptide Efficacy in Liquid Medium after 15 h of Incubation: >12 µM, 209P strain
  concentration at which inhibition of bacterial growth was observed (Figure 1): not demonstrated
MRSA ATCC 43300 strain
  Peptide Efficacy in Liquid Medium after 15 h of Incubation: >12 µM, ATCC 43300 strain
MRSA SA 180-F strain
  Peptide Efficacy in Liquid Medium after 24 h of Incubation: >276.8 µM, SA 180-F strain
[1]
  antimicrobial effect compared to the negative control (Figure 3): did not exhibit antimicrobial effects
  Peptide Efficacy in Liquid Medium after 24 h of Incubation: >276.8 µM, 2943 strain
P. aeruginosa ATCC 28753
  Peptide Efficacy in Liquid Medium after 15 h of Incubation: >12 µM, ATCC 28753
  concentrations of peptides suppressing the growth of bacteria compared to the negative control (Figure 3): 6 µM
E. coli K12 strain
  concentration with antimicrobial activity / effective concentration (text to Figure 4): did not exhibit antimicrobial activity
  Peptide Efficacy in Liquid Medium after 15 h of Incubation: >12 µM, K12 strain
E. coli MG1655 strain
  concentration with antimicrobial activity / effective concentration (text to Figure 4): 276.8 µM
  Peptide Efficacy in Liquid Medium after 24 h of Incubation: >276.8 µM, MG1655 strain
Human skin fibroblasts; 100 µg/mL
  cytotoxic effect: no cytotoxic effect
BT474 cells
  cytotoxic effect: no cytotoxic effect
